Experimental data published in patent US20250302815A1, “PROTEIN TYROSINE PHOSPHATASE TARGETING LIGANDS” (CALICO LIFE SCIENCES LLC, priority 2021, published 2025).
Values belong to the compound of their own block, whether it stands above or below them.

Tests used:
[1] = biological target: T1, PTPN2 (HiBIT-PTPN2 in 293T.109 cells) (Homo sapiens, UniProt P17706); experiment: HiBiT Degradation 293T.109 PTPN2 (Nano-Glo HiBiT Lytic Assay); assay type: cell-based; conditions: 24.0 hours
T1 construct: expressed in transfected cells; host or cells: 293T.109 (293T WT from ATCC)
T1 sequence (P17706 1-415): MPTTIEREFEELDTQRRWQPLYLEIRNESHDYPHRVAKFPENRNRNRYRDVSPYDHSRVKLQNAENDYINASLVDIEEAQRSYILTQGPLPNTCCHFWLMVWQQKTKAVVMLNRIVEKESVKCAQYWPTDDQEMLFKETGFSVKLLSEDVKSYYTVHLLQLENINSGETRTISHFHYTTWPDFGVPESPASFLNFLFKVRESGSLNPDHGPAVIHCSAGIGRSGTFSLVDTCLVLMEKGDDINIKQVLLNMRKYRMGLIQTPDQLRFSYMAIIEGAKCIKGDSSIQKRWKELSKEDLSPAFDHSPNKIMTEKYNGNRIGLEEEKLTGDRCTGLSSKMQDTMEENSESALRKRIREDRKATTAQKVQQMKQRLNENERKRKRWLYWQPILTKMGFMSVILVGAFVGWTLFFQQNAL
From the text: Dulbecco's modified Eagle medium (DMEM) without phenol red and fetal bovine serum (FBS) were purchased from Gibco (Grand Island, NY, USA). Nano-Glo® HiBIT Lytic Assay System was purchased from Promega (Madison, WI, USA). 293T.109 (HiBIT-PTPN2) cell line was generated by ectopically expressing PTPN2 with N-terminal HiBIT fusion tag in 293T WT cell line purchased from ATCC (Manassas, VA, USA). Cell culture flasks and 384-well microplates were acquired from VWR (Radnor, PA, USA).
PTPN2 degradation was determined based on quantification of luminescent signal using Nano-Glo® HiBIT Lytic Assay kit. Test compounds were added to the 384-well plate from a top concentration of 10 μM with 11 points, half log titration in duplicates. 293T.109 cells were added into 384-well plates at a cell density of 5000 cells per well. The plates were kept at 37° C. with 5% CO2 for 24 hours. The cells treated in the absence of the test compound were the negative control and the cells without Nano-Glo® HiBIT Lytic reagent were the positive control. After 24-hour incubation, Nano-Glo® HiBiT Lytic Assay reagents were added to the cells. Luminescence was acquired on EnVision™ Multilabel Reader (PerkinElmer, Santa Clara, CA, USA).

PTPN2 (B16F10.4 cells) = biological target: T2, PTPN2 (B16F10.4 cells) (Mus musculus, UniProt Q06180); experiment: HiBiT Degradation B16F10.4 PTPN2; assay type: cell-based; conditions: 24.0 hours
T2 construct: HiBiT; host or cells: B16F10.4
T2 sequence (Q06180 1-406): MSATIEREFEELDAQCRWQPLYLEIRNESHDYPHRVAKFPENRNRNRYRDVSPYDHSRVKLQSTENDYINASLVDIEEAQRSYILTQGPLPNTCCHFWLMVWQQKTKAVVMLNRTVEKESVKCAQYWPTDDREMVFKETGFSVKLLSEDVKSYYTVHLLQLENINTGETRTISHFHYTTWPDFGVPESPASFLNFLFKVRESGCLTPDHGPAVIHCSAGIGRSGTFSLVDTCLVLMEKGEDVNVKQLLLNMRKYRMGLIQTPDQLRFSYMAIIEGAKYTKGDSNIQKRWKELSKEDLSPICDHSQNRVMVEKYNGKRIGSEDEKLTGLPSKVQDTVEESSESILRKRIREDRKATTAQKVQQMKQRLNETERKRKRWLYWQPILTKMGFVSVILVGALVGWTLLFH

SMILES: CN(c1cccc(-c2sc(C(=O)O)c(OCC(=O)O)c2Cl)c1)C1CCN(S(=O)(=O)Cc2cccc(NC(=O)CCn3cc(CNc4cccc5c4C(=O)N(C4CCC(=O)NC4=O)C5=O)nn3)c2)CC1 (stereo not shown) [Example 17, 3-(carboxymethoxy)-4-chloro-5-(3-((1-((3-(3-(4-(((2-(2,6-dioxopiperidin-3-yl)-1,3-dioxoisoindolin-4-yl)amino)methyl)-1H-1,2,3-triazol-1-yl)propanamido)benzyl)sulfonyl)piperidin-4-yl)(methyl)amino)phenyl)thiophene-2-carboxylic acid]
DC50 [1]: ≥ 1 µM
DC50 (PTPN2 (B16F10.4 cells)): ≥ 1 µM

SMILES: CC1(C)C[C@@H](Nc2cccc(-c3sc(C(=O)O)c(OCC(=O)O)c3Cl)c2)CCN1S(=O)(=O)Cc1cccc(NC(=O)CCCCCCNC(=O)CNc2cccc3c2CN(C2CCC(=O)NC2=O)C3=O)c1 (stereo partly drawn) [Example 18, 3-(carboxymethoxy)-4-chloro-5-(3-(((4S)-1-((3-(7-(2-((2-(2,6-dioxopiperidin-3-yl)-1-oxoisoindolin-4-yl)amino)acetamido)heptanamido)benzyl)sulfonyl)-2,2-dimethylpiperidin-4-yl)amino)phenyl)thiophene-2-carboxylic acid]
DC50 [1]: 0.2 to 1 µM
DC50 (PTPN2 (B16F10.4 cells)): 0.2 to 1 µM

SMILES: O=C(O)COc1c(C(=O)O)sc(-c2cccc(NC3CCN(S(=O)(=O)Cc4cccc(NC(=O)CCOCCOCCOCCCc5ccc6c(c5)CN(C5CCC(=O)NC5=O)C6=O)c4)CC3)c2)c1Cl (stereo not shown) [Example 19, 3-(carboxymethoxy)-4-chloro-5-(3-((1-((3-(3-(2-(2-(3-(2-(2,6-dioxopiperidin-3-yl)-1-oxoisoindolin-5-yl)propoxy)ethoxy)ethoxy)propanamido)benzyl)sulfonyl)piperidin-4-yl)amino)phenyl)thiophene-2-carboxylic acid]
DC50 [1]: 0.2 to 1 µM
DC50 (PTPN2 (B16F10.4 cells)): 0.2 to 1 µM

SMILES: O=C(O)COc1c(C(=O)O)sc(-c2cccc(NC3CCN(S(=O)(=O)Cc4cccc(NC(=O)CCOCCOCCCc5cccc6c5C(=O)N(C5CCC(=O)NC5=O)C6=O)c4)CC3)c2)c1Cl (stereo not shown) [Example 20, 3-(carboxymethoxy)-4-chloro-5-[3-[[1-[[3-[3-[2-[3-[2-(2,6-dioxo-3-piperidyl)-1,3-dioxo-isoindolin-4-yl]propoxy]ethoxy]propanoylamino]phenyl]methylsulfonyl]-4-piperidyl]amino]phenyl]thiophene-2-carboxylic acid]
DC50 [1]: 0.2 to 1 µM
DC50 (PTPN2 (B16F10.4 cells)): ≥ 1 µM

SMILES: O=C(O)COc1c(C(=O)O)sc(-c2cccc(NC3CCN(S(=O)(=O)Cc4cccc(NC(=O)CCCCCNC(=O)CNc5cccc6c5CN(C5CCC(=O)NC5=O)C6=O)c4)CC3)c2)c1Cl (stereo not shown) [Example 21, 3-(carboxymethoxy)-4-chloro-5-(3-((1-((3-(6-(2-((2-(2,6-dioxopiperidin-3-yl)-1-oxoisoindolin-4-yl)amino)acetamido)hexanamido)benzyl)sulfonyl)piperidin-4-yl)amino)phenyl)thiophene-2-carboxylic acid]
DC50 [1]: 0.2 to 1 µM
DC50 (PTPN2 (B16F10.4 cells)): ≥ 1 µM

SMILES: O=C(O)COc1c(C(=O)O)sc(-c2cccc(NC3CCN(S(=O)(=O)Cc4cccc(NC(=O)CCCCNC(=O)CNc5cccc6c5CN(C5CCC(=O)NC5=O)C6=O)c4)CC3)c2)c1Cl (stereo not shown) [Example 22, 3-(carboxymethoxy)-4-chloro-5-(3-((1-((3-(5-(2-((2-(2,6-dioxopiperidin-3-yl)-1-oxoisoindolin-4-yl)amino)acetamido)pentanamido)benzyl)sulfonyl)piperidin-4-yl)amino)phenyl)thiophene-2-carboxylic acid]
DC50 [1]: 0.2 to 1 µM
DC50 (PTPN2 (B16F10.4 cells)): ≥ 1 µM

SMILES: O=C(O)COc1c(C(=O)O)sc(-c2cccc(NC3CCN(S(=O)(=O)Cc4cccc(NC(=O)CNc5ccc6c(c5)C(=O)N(C5CCC(=O)NC5=O)C6=O)c4)CC3)c2)c1Cl (stereo not shown) [Example 23, 3-(carboxymethoxy)-4-chloro-5-[3-[[1-[[3-[[2-[[2-(2,6-dioxo-3-piperidyl)-1,3-dioxo-isoindolin-5-yl]amino]acetyl]amino]phenyl]methylsulfonyl]-4-piperidyl]amino]phenyl]thiophene-2-carboxylic acid]
DC50 [1]: 0.2 to 1 µM
DC50 (PTPN2 (B16F10.4 cells)): 0.2 to 1 µM

SMILES: O=C(O)COc1c(C(=O)O)sc(-c2cccc(NC3CCN(S(=O)(=O)Cc4cccc(NC(=O)CCOCCNC(=O)CNc5ccc6c(c5)C(=O)N(C5CCC(=O)NC5=O)C6=O)c4)CC3)c2)c1Cl (stereo not shown) [Example 24, 3-(carboxymethoxy)-4-chloro-5-[3-[[1-[[3-[3-[2-[[2-[[2-(2,6-dioxo-3-piperidyl)-1,3-dioxo-isoindolin-5-yl]amino]acetyl]amino]ethoxy]propanoylamino]phenyl]methylsulfonyl]-4-piperidyl]amino]phenyl]thiophene-2-carboxylic acid]
DC50 [1]: 0.2 to 1 µM
DC50 (PTPN2 (B16F10.4 cells)): ≥ 1 µM

SMILES: O=C(O)COc1c(C(=O)O)sc(-c2cccc(NC3CCN(S(=O)(=O)Cc4cccc(NC(=O)CCCCCCNC(=O)CNc5ccc6c(c5)CN(C5CCC(=O)NC5=O)C6=O)c4)CC3)c2)c1Cl (stereo not shown) [Example 25, 3-(carboxymethoxy)-4-chloro-5-[3-[[1-[[3-[7-[[2-[[2-(2,6-dioxo-3-piperidyl)-1-oxo-isoindolin-5-yl]amino]acetyl]amino]heptanoylamino]phenyl]methylsulfonyl]-4-piperidyl]amino]phenyl]thiophene-2-carboxylic acid]
DC50 [1]: 0.2 to 1 µM
DC50 (PTPN2 (B16F10.4 cells)): 0.2 to 1 µM

Further lines, results first:

DC50 [1]: 0.2 to 1 µM
DC50 (PTPN2 (B16F10.4 cells)): ≥ 1 µM
SMILES: CC(Nc1cccc2c1CN(C1CCC(=O)NC1=O)C2=O)C(=O)NCCCCCCC(=O)Nc1cccc(CS(=O)(=O)N2CCC(Nc3cccc(-c4sc(C(=O)O)c(OCC(=O)O)c4Cl)c3)CC2)c1 (stereo not shown) [Example 26, 3-(carboxymethoxy)-4-chloro-5-[3-[[1-[[3-[7-[2-[[2-(2,6-dioxo-3-piperidyl)-1-oxo-isoindolin-4-yl]amino]propanoylamino]heptanoylamino]phenyl]methylsulfonyl]-4-piperidyl]amino]phenyl]thiophene-2-carboxylic acid]

DC50 [1]: 0.2 to 1 µM
DC50 (PTPN2 (B16F10.4 cells)): ≥ 1 µM
SMILES: O=C(O)COc1c(C(=O)O)sc(-c2cccc(NC3CCN(S(=O)(=O)Cc4cccc(NC(=O)CCOCCCc5cccc6c5C(=O)N(C5CCC(=O)NC5=O)C6=O)c4)CC3)c2)c1Cl (stereo not shown) [Example 27, 3-(carboxymethoxy)-4-chloro-5-[3-[[1-[[3-[3-[3-[2-(2,6-dioxo-3-piperidyl)-1,3-dioxo-isoindolin-4-yl]propoxy]propanoylamino]phenyl]methylsulfonyl]-4-piperidyl]amino]phenyl]thiophene-2-carboxylic acid]

DC50 [1]: 0.2 to 1 µM
DC50 (PTPN2 (B16F10.4 cells)): ≥ 1 µM
SMILES: CC1(C)C[C@@H](Nc2cccc(-c3sc(C(=O)O)c(OCC(=O)O)c3Cl)c2)CCN1S(=O)(=O)Cc1cccc(NC(=O)CCCNC(=O)CNc2cccc3c2CN(C2CCC(=O)NC2=O)C3=O)c1 (stereo partly drawn) [Example 28, 3-(carboxymethoxy)-4-chloro-5-(3-(((4S)-1-((3-(4-(2-((2-(2,6-dioxopiperidin-3-yl)-1-oxoisoindolin-4-yl)amino)acetamido)butanamido)benzyl)sulfonyl)-2,2-dimethylpiperidin-4-yl)amino)phenyl)thiophene-2-carboxylic acid]

DC50 [1]: 0.2 to 1 µM
DC50 (PTPN2 (B16F10.4 cells)): 0.2 to 1 µM
SMILES: CC1(C)C[C@@H](Nc2cccc(-c3sc(C(=O)O)c(OCC(=O)O)c3Cl)c2)CCN1S(=O)(=O)Cc1cccc(NC(=O)COc2cccc3c2CN(C2CCC(=O)NC2=O)C3=O)c1 (stereo partly drawn) [Example 29, 3-(carboxymethoxy)-4-chloro-5-[3-[[(4S)-1-[[3-[[2-[2-(2,6-dioxo-3-piperidyl)-1-oxo-isoindolin-4-yl]oxyacetyl]amino]phenyl]methylsulfonyl]-2,2-dimethyl-4-piperidyl]amino]phenyl]thiophene-2-carboxylic acid]

DC50 [1]: 0.2 to 1 µM
DC50 (PTPN2 (B16F10.4 cells)): ≥ 1 µM
SMILES: O=C(O)COc1c(C(=O)O)sc(-c2cccc(NC3CCN(S(=O)(=O)Cc4cccc(NC(=O)CCCCCCNC(=O)CNc5cccc6c5C(=O)N(C5CCC(=O)NC5=O)C6)c4)CC3)c2)c1Cl (stereo not shown) [Example 30, 3-(carboxymethoxy)-4-chloro-5-[3-[[1-[[3-[7-[[2-[[2-(2,6-dioxo-3-piperidyl)-3-oxo-isoindolin-4-yl]amino]acetyl]amino]heptanoylamino]phenyl]methylsulfonyl]-4-piperidyl]amino]phenyl]thiophene-2-carboxylic acid]
